The results in this text go back to BindingDB's records for doi:10.1021/acs.jmedchem.9b00963 (Hong Kong Polytechnic University, 2019).

For orientation: EC50 means the concentration at which the effect is half-maximal.

Molecules are shown by their SMILES.

Data set [1] can be described thus: Inhibition of P-gp (unknown origin) expressed in human LCC6MDR cells assessed as reversal of paclitaxel resistance after 5 days by MTS/PMS assay.
The nature of data set [2]: Inhibition of BCRP (unknown origin) transfected in HEK293/R2 cells assessed as reversal of topotecan resistance after 5 days by MTS/PMS assay.
Data set [3] is described as follows: Inhibition of BCRP in human MCF7/MX100 cells assessed as reversal of topotecan resistance after 5 days by MTS/PMS assay.

For the compound `O=c1cc(-c2ccc(OCCCc3cn(CCOCCOc4ccc(-c5cc(=O)c6ccccc6o5)cc4)nn3)cc2)oc2ccccc12`, the EC50 in data set [1] is 201 nM.

For the compound `O=c1cc(-c2ccc(OCCOCCn3cc(CCCOc4ccc(-c5cc(=O)c6ccc(F)cc6o5)cc4)nn3)cc2)oc2ccccc12`, the concentration for a half-maximal effect (EC50) in data set [2] was 7.2 nM; in data set [1], 155 nM.

With `O=c1cc(-c2ccc(OCCOCCn3cc(COCCOc4ccc5c(=O)cc(-c6ccccc6)oc5c4)nn3)cc2)oc2ccccc12`, the EC50 in data set [2] amounted to 303 nM; in data set [3], 235 nM; in data set [1] it was 960 nM.

`O=c1cc(-c2ccccc2)oc2cc(OCCN(Cc3ccccc3)Cc3cn(CCOCCOCCOc4ccc(-c5cc(=O)c6cc(F)ccc6o5)cc4)nn3)ccc12`: the 50% effective concentration (EC50) came out at 27 nM in data set [2], 20 nM in data set [3] and 334 nM in data set [1].

As for `Cc1ccc2oc(-c3ccc(OCCOCCOCCn4cc(CCCOc5ccc(-c6cc(=O)c7ccc(F)cc7o6)cc5)nn4)cc3)cc(=O)c2c1`, the figures for the EC50 in data set [2], in data set [3] and in data set [1] were 14 nM, 20 nM and 219 nM, respectively.

`O=c1cc(-c2ccc(OCCCc3cn(CCOCCOCCOc4ccc(-c5cc(=O)c6cc(F)ccc6o5)cc4)nn3)cc2)oc2cc(F)ccc12`: the EC50 in data set [2] worked out at 3.1 nM; in data set [3] it was 4 nM; in data set [1], 161 nM.

As for `Cc1ccc2oc(-c3ccc(OCCCCc4cn(CCOCCOc5ccc(-c6cc(=O)c7cc(F)ccc7o6)cc5)nn4)cc3)cc(=O)c2c1`, the EC50 in data set [2] was 15 nM; in data set [3] it was 64 nM.

As for `O=c1cc(-c2ccc(OCCCc3cn(CCOCCOc4ccc5c(=O)cc(-c6ccccc6)oc5c4)nn3)cc2)oc2cc(F)ccc12`, the concentration giving a half-maximal response (EC50) in data set [2] is 6.4 nM; in data set [3] it was 7.9 nM; in data set [1], 69 nM.

For the compound `O=c1cc(-c2ccc(OCCOCCOCCn3cc(CCCOc4ccc(-c5cc(=O)c6ccc(F)cc6o5)cc4)nn3)cc2)oc2ccccc12`, the EC50 in data set [2] turned out to be 24 nM; in data set [3] it was 7.4 nM; in data set [1], 255 nM.

Take `COC(=O)c1cccc(COc2c(-c3ccc(OCCOCCn4cc(CCCCOc5ccc6c(=O)cc(-c7ccccc7)oc6c5)nn4)cc3)oc3ccccc3c2=O)c1`: the EC50 in data set [2] amounted to 5.2 nM; in data set [1], 325 nM.

As to `COC(=O)c1cccc(COc2c(-c3ccc(OCCOCCOCCn4cc(-c5cccc(-c6cn(CCOCCOCCOc7ccc(-c8oc9ccccc9c(=O)c8OCc8cccc(C(=O)OC)c8)cc7)nn6)c5)nn4)cc3)oc3ccccc3c2=O)c1`, the EC50 in data set [2] is 2.8 nM; in data set [3], 13 nM; in data set [1], over 1000 nM.

As for `COC(=O)c1cccc(COc2c(-c3ccc(OCCOCCOCCn4cc(COCCOc5ccc6c(=O)cc(-c7ccccc7)oc6c5)nn4)cc3)oc3ccccc3c2=O)c1`, the EC50 in data set [1] came to 313 nM.

On to `O=c1cc(-c2ccccc2)oc2cc(OCCCCc3cn(CCOCCOCCOc4ccc(-c5oc6ccccc6c(=O)c5OCc5ccccc5)cc4)nn3)ccc12`, for which the EC50 in data set [2] is 35 nM; in data set [3], 16 nM; in data set [1], 278 nM.

In the case of `O=c1cc(-c2ccccc2)oc2cc(OCCOCc3cn(CCOCCOCCOc4ccc(-c5cc(=O)c6cc(F)ccc6o5)cc4)nn3)ccc12`, the EC50 was found to be 230 nM in data set [2], 264 nM in data set [3] and 967 nM in data set [1].

For the compound `O=c1cc(-c2ccccc2)oc2cc(OCCOCCn3cc(CN(Cc4ccccc4)Cc4cn(CCOCCOc5ccc6c(=O)cc(-c7ccccc7)oc6c5)nn4)nn3)ccc12`, the EC50 is 153 nM in data set [2], 278 nM in data set [3] and over 1000 nM in data set [1].

In the case of `COC(=O)c1cccc(COc2c(-c3ccc(OCCOCCOCCn4cc(CN(Cc5ccccc5)Cc5cn(CCOCCOCCOc6ccc(-c7oc8ccccc8c(=O)c7OCc7cccc(C(=O)OC)c7)cc6)nn5)nn4)cc3)oc3ccccc3c2=O)c1`, the EC50 is 3.3 nM in data set [2], 4.3 nM in data set [3] and over 1000 nM in data set [1].

Take `O=c1cc(-c2ccccc2)oc2cc(OCCOCc3cn(CCOCCOc4ccc(-c5cc(=O)c6cc(F)ccc6o5)cc4)nn3)ccc12`: the EC50 was 285 nM in data set [2], 195 nM in data set [3] and over 1000 nM in data set [1].

In the case of `O=c1cc(-c2ccccc2)oc2cc(OCCOCc3cn(CCOCCOc4ccc(-c5oc6ccccc6c(=O)c5OCc5ccccc5)cc4)nn3)ccc12`, in data set [1], the concentration for a half-maximal effect (EC50) was determined as 345 nM.

For the compound `O=c1c(OCc2ccccc2)c(-c2ccc(OCCOCCOCCn3cc(CN(Cc4ccccc4)Cc4cn(CCOCCOCCOc5ccc(-c6oc7ccccc7c(=O)c6OCc6ccccc6)cc5)nn4)nn3)cc2)oc2ccccc12`, the EC50 came out at 36 nM in data set [2], 26 nM in data set [3] and 560 nM in data set [1].

Regarding `Cc1ccc2oc(-c3ccc(OCCOCCOCCn4cc(CCCOc5ccc6c(=O)cc(-c7ccccc7)oc6c5)nn4)cc3)cc(=O)c2c1`, the results for the EC50 in data set [2], in data set [3] and in data set [1] were 35 nM, 185 nM and 350 nM, respectively.

`COC(=O)c1cccc(COc2c(-c3ccc(OCCOCCOCCn4cc(CN5CCN(Cc6cn(CCOCCOCCOc7ccc(-c8oc9ccccc9c(=O)c8OCc8cccc(C(=O)OC)c8)cc7)nn6)CC5)nn4)cc3)oc3ccccc3c2=O)c1`: the EC50 is 31 nM in data set [2], 40 nM in data set [3] and over 1000 nM in data set [1].

For `COC(=O)c1cccc(COc2c(-c3ccc(OCCOCCn4cc(CN5CCN(Cc6cn(CCOCCOc7ccc(-c8oc9ccccc9c(=O)c8OCc8cccc(C(=O)OC)c8)cc7)nn6)CC5)nn4)cc3)oc3ccccc3c2=O)c1`, the 50% effective concentration (EC50) in data set [2] came out at 18 nM; in data set [3], 19 nM; in data set [1], 683 nM.

Consider `COC(=O)c1cccc(COc2c(-c3ccc(OCCOCCn4cc(CN(Cc5ccncc5)Cc5cn(CCOCCOc6ccc(-c7oc8ccccc8c(=O)c7OCc7cccc(C(=O)OC)c7)cc6)nn5)nn4)cc3)oc3ccccc3c2=O)c1`, for which the values for the EC50 in data set [2], in data set [3] and in data set [1] were 49 nM, 25 nM and over 1000 nM, respectively.

On to `COC(=O)c1cccc(COc2c(-c3ccc(OCCOCCn4cc(CN(Cc5cn(CCOCCOc6ccc(-c7oc8ccccc8c(=O)c7OCc7cccc(C(=O)OC)c7)cc6)nn5)c5ccccc5)nn4)cc3)oc3ccccc3c2=O)c1`, for which the EC50 in data set [2] was 6.8 nM; in data set [3], 2.2 nM; in data set [1] it was over 1000 nM.

Consider `COC(=O)c1cccc(COc2c(-c3ccc(OCCOCCOCCn4cc(-c5ccc(-c6cn(CCOCCOCCOc7ccc(-c8oc9ccccc9c(=O)c8OCc8cccc(C(=O)OC)c8)cc7)nn6)cc5)nn4)cc3)oc3ccccc3c2=O)c1`, for which the EC50 is 2.4 nM in data set [2], 14 nM in data set [3] and over 1000 nM in data set [1].

For the compound `O=c1cc(-c2ccc(OCCOCCOCCn3cc(CCCOc4ccc5c(=O)cc(-c6ccccc6)oc5c4)nn3)cc2)oc2ccccc12`, the half-maximal effective concentration (EC50) came out at 52 nM in data set [2], 203 nM in data set [3] and 384 nM in data set [1].

In the case of `COC(=O)c1cccc(COc2c(-c3ccc(OCCOCCOCCn4cc(CCCOc5ccc(-c6cc(=O)c7ccc(F)cc7o6)cc5)nn4)cc3)oc3ccccc3c2=O)c1`, the concentration giving a half-maximal response (EC50) is 2 nM in data set [2], 2.3 nM in data set [3] and 246 nM in data set [1].

In the case of `Cc1ccc2oc(-c3ccc(OCCCCc4cn(CCOCCOCCOc5ccc(-c6cc(=O)c7ccccc7o6)cc5)nn4)cc3)cc(=O)c2c1`, the values for the EC50 in data set [2], in data set [3] and in data set [1] were 285 nM, 160 nM and over 1000 nM, respectively.

Regarding `O=c1cc(-c2ccccc2)oc2cc(OCCCc3cn(CCOCCOCCOc4ccc(-c5oc6ccccc6c(=O)c5OCc5ccccc5)cc4)nn3)ccc12`, the EC50 in data set [2] came out at 60 nM; in data set [3] it was 78 nM; in data set [1], 259 nM.

`COC(=O)c1cccc(COc2c(-c3ccc(OCCOCCOCCn4cc(CCCOc5ccc6c(=O)cc(-c7ccccc7)oc6c5)nn4)cc3)oc3ccccc3c2=O)c1`: the values for the EC50 in data set [2], in data set [3] and in data set [1] were 3.5 nM, 7 nM and 414 nM, respectively.

In the case of `O=c1cc(-c2ccc(OCCCc3cn(CCOCCOCCOc4ccc5c(=O)cc(-c6ccccc6)oc5c4)nn3)cc2)oc2cc(F)ccc12`, the EC50 in data set [2] turned out to be 28 nM; in data set [3], 27 nM; in data set [1] it was 89 nM.

`Cc1ccc2oc(-c3ccc(OCCCCc4cn(CCOCCOCCOc5ccc6c(=O)cc(-c7ccccc7)oc6c5)nn4)cc3)cc(=O)c2c1`: the EC50 in data set [3] stood at 151 nM.

For the compound `COC(=O)c1cccc(COc2c(-c3ccc(OCCOCCOCCn4cc(CCCCOc5ccc6c(=O)cc(-c7ccccc7)oc6c5)nn4)cc3)oc3ccccc3c2=O)c1`, in data set [1], the EC50 amounted to 285 nM.

Take `O=c1cc(-c2ccc(OCCOCCOCCn3cc(COCCOc4ccc5c(=O)cc(-c6ccccc6)oc5c4)nn3)cc2)oc2ccccc12`: the EC50 in data set [2] is 303 nM; in data set [3] it was 340 nM; in data set [1] it was 963 nM.

Turning to `COC(=O)c1cccc(COc2c(-c3ccc(OCCOCCn4cc(COCCOc5ccc6c(=O)cc(-c7ccccc7)oc6c5)nn4)cc3)oc3ccccc3c2=O)c1`, the figures for the EC50 in data set [3] and in data set [1] were 18 nM and 437 nM, respectively.

With `O=c1cc(-c2ccc(OCCOCCn3cc(CN(Cc4ccccc4)Cc4cn(CCOCCOc5ccc(-c6cc(=O)c7ccccc7o6)cc5)nn4)nn3)cc2)oc2ccccc12`, the EC50 in data set [3] was found to be 205 nM; in data set [1], 670 nM.

As to `O=c1cc(-c2ccccc2)oc2cc(OCCn3cc(CN(Cc4ccccc4)Cc4cn(CCOc5ccc6c(=O)cc(-c7ccccc7)oc6c5)nn4)nn3)ccc12`, the EC50 was 243 nM in data set [2], 485 nM in data set [3] and over 1000 nM in data set [1].

With `Cc1ccc2oc(-c3ccc(OCCOCCOCCn4cc(CN(Cc5ccccc5)Cc5cn(CCOCCOCCOc6ccc(-c7cc(=O)c8cc(C)ccc8o7)cc6)nn5)nn4)cc3)cc(=O)c2c1`, the EC50 is 46 nM in data set [3] and 763 nM in data set [1].

As for `COC(=O)c1cccc(COc2c(-c3ccc(OCCOCCOCCn4cc(CCCCOc5ccc(-c6cc(=O)c7cc(C)ccc7o6)cc5)nn4)cc3)oc3ccccc3c2=O)c1`, in data set [1], the EC50 came out at 420 nM.

On to `COC(=O)c1cccc(COc2c(-c3ccc(OCCOCCn4cc(CCCCOc5ccc(-c6cc(=O)c7cc(C)ccc7o6)cc5)nn4)cc3)oc3ccccc3c2=O)c1`, for which the EC50 in data set [1] turned out to be 430 nM.
